Measurements published in patent US11096930B2, “Substituted imidazopyridine compounds as inhibitors of indoleamine 2,3-dioxygenase and/or tryptophan-2,3-dioxygenase” (IOMet Pharma Ltd., priority 2016, dated 2021).

How the values were obtained:
IDO1 [1] = biological target: T1, IDO1 (Homo sapiens (Human), UniProt P14902); assay: IDO1 Enzyme Assay; assay type: biochemical; details: HIS-tagged IDO1, fluorescence
Method: Compounds to be tested were serially diluted in ten 3-fold steps in DMSO starting from 10 mM DMSO stocks. Compound dilutions or DMSO alone were then dispensed from the dilution plate into a Greiner black 384-well assay plate (catalog #781086) using an Echo 555 acoustic liquid handler (Labcyte).
HIS-tagged IDO1 protein was recombinantly expressed in Escherichia coli using ZYP5052 autoinduction media supplemented with 500 μM delta aminolevulinic acid for 48 hours at 16 degrees Celsius. IDO1 protein was purified using Ni^2+-affinity resin and size exclusion chromatography. Purified protein was then diluted in assay buffer (50 mM Tris pH 7.0, 1% glycerol, 20 μM methylene blue, 0.05% Tween-20, 20 mM sodium ascorbate, 100 units/mL catalase to obtain a final IDO1 concentration of 40 nM. […] were dispensed to wells of the assay plate using a BioRAPTR liquid dispenser (Beckman Coulter). Assay plates containing compound and IDO1 enzyme were incubated at room temperature for 30 minutes. Afterwards, 10 μL of 400 μM tryptophan in assay buffer were added to each well of the assay plate using a BioRAPTR liquid dispenser. Plates were incubated at room temperature for 60 minutes and reactions were quenched by addition of 10 μL of 0.5 M methyl isonipecotate in dimethyl sulfoxide. Plates were sealed and incubated at 37 degrees Celsius for 4 hours or 50 degrees Celsius for 2 hours. The plates are allowed to cool and then centrifuged for 1 minute at 1000×g. The resulting fluoresence was measured in an Envision plate reader (Perkin Elmer) with a 400/25 nm excitation filter and an 510/20 nm emission filter.
Potencies were calculated by linear least squares fit to the four parameter logistic IC50 equation.

IDO1 [2] = biological target: T1, IDO1; assay: IDO1 HEK293 Cellular Assay; assay type: cell-based; details: HEK293 cells transfected with Flag-IDO1 vector; read-out: HEK293 Cell Assay, pIC50 (converted)
Method: IDO1 HEK293 Cellular Assay
Compounds to be tested were serially diluted in ten 3-fold steps in DMSO starting from 10 mM DMSO stocks. Compound dilutions or DMSO alone were then dispensed from the dilution plate into a Greiner black 384-well assay plate (catalog #781086) using an Echo 550 acoustic liquid handler (Labcyte).
HEK293 cell pellets were resuspended to 5×10^5 cells/mL in complete HEK293 culture media (89% DMEM, 10% FBS, 1% penicilllin/streptomycin). Suspended cells (2 mL) were dispensed into each well of a 6-well Corning plate (Catalog #3516). Cells were allowed to attach and were incubated for 20 hours at 37 degrees Celsius in a 5% CO2 incubator. Flag-IDO1 vector (Genscript True ORF Gold, 2 ug) in 150 uL of Opti-MEM medium was added to each well of a Corning 24 well plate (Cat #3527) and incubated for 5 minutes at room temperature. To each well of the 24-well plate was added 150 μL Lipofectamine 2000 (Gibco) and the plate incubated at room temperature for 20-30 minutes. To each well of attached cells in the 6-well plate, 250 μL of the transfection mix from the 24-well plate was gently added to each well and IDO1 protein was allowed to express for 24-30 hours at 37 degrees Celsius in a 5% CO2 incubator.
Media was removed from the cells which were then washed with 2 mL Dulbecco's phosphate-buffered saline (DPBS). After removal of DPBS, 0.5 mL of TrypLE (Gibco) was added and incubated at 5 minutes until cells lift from the surface of the wells. Complete HEK293 culture media (4 mL) was added to each well and cells were collected and pooled into a conical tube. Cells were pelleted at 200×g for 5 minutes and resuspended in an equal volume of complete DMEM medium. Cells were diluted to 4×10^5 cells per mL in complete HEK293 media. L-Tryptophan was added to added to give a final concentration of 200 μM. The diluted transfected cells (50 μL) or nontransfected cells (50 μL) were dispensed into wells of Greiner black 384-well assay plates (catalog #781086) containing previously diluted compounds. The plate is briefly mixed and centrifuged at 200×g for 10 seconds to collect cells at the bottom of the plate. Plates were covered and incubated for 20-24 hours at 37 degrees C. in a 5% CO2 incubator. […] The resulting fluoresence was measured in an Envision plate reader (Perkin Elmer) with a 400/25 nm excitation filter and an 510/20 nm emission filter.
The fluoresence intensity of each well was corrected for the background observed in wells with untransfected cells and was expressed as a fraction of the intensity observed in wells of IDO1 transfected cells and DMSO only. Potencies were calculated by linear least squares fit to the four parameter logistic IC50 equation.

T1 sequence (P14902 whole entry): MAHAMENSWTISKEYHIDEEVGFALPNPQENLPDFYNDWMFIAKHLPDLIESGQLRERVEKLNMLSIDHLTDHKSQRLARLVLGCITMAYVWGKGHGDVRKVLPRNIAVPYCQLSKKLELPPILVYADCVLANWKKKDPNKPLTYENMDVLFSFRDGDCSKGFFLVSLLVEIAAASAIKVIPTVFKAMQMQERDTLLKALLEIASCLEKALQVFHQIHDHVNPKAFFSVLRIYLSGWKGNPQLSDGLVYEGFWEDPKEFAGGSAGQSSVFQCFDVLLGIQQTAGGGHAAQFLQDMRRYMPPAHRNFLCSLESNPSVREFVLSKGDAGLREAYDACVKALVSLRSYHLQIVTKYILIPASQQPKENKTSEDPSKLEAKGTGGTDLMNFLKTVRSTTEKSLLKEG

IDO1 Enzyme Assay, pIC50 (IDO1 [1])	IC50 (IDO1 [2]) [nM]	SMILES
5.7	1580	O=C1OCCC12CCN(c1cc(C(F)(F)F)cc3cncn13)CC2 [Example 17, 8-(7-(trifluoromethyl)imidazo[1,5-a]pyridin-5-yl)-2-oxa-8-azaspiro[4.5]decan-1-one]
5.1	6310	O=C1NCCC12CCN(c1cc(C(F)(F)F)cc3cncn13)CC2 [Example 19, 8-(7-(trifluoromethyl)imidazo[1,5-a]pyridin-5-yl)-2,8-diazaspiro[4.5]decan-1-one]
5.7	1580	CC1=NC2(CCN(c3cc(C(F)(F)F)cc4cncn34)CC2)C(=O)N1 [Example 18, 2-methyl-8-(7-(trifluoromethyl)imidazo[1,5-a]pyridin-5-yl)-1,3,8-triazaspiro[4.5]dec-1-en-4-one]
5.2	2000	CC(=O)N1CCC2(CC1)CCN(c1cc(C(F)(F)F)cc3cncn13)CC2 [Example 20, 1-(9-(7-(Trifluoromethyl)imidazo[1,5-a]pyridin-5-yl)-3,9-diazaspiro[5.5]undecan-3-yl)ethan-1-one]
